Entries after “also recorded” stand apart in the source; their conditions may differ.
B1: OP-1: osteogenic protein-1, a tissue morphogenic protein of the TGF-β superfamily; mature human OP-1 is SEQ ID No. 4 (protein, listed as Homo sapiens)
chain: CKKHELYVSFRDLGWQDWIIAPEGYAAYYCEGECAFPLNSYMNATNHAIVQTLVHFINPETVPKPCCAPTQLNAISVLYFDDSSNVILKKYRNMVVRACGCH

Columns and labels:
ROS cells = assay: ROS cell based alkaline phosphatase bioassay; set-up: species or system rat; conditions: for % increase in OP-1 response relative to the absence of peptide: OP-1 1.33 nM
Description: In a first series of experiments, increasing concentrations of peptides F2-2 (FIG. 9A), F2-3 (FIG. 9B), Hn-2 (FIG. 9C) and Hc-2 (FIG. 9D) were added to ROS cells either alone (open bars) or in combination with 40 ng/ml soluble OP-1 (filled bars) and their effect on alkaline phosphatase activity measured. Soluble OP-1 is the form of OP-1 in which the pro-domain is still attached to the mature portion of OP-1 (see WO 94/03600). A basal alkaline phosphatase activity is shown by the line and represents the alkaline phosphatase activity of cells incubated in the absence of both soluble OP-1 and peptide.
(§1) Assay of peptides: The receptor-binding activities of OP-1 synthetic peptides were determined by a radio-ligand receptor assay using ^125I-labeled OP-1 as ligand, and an OP-1 receptor-enriched plasma membrane fraction of ROS cells. The assay is based on competition between radiolabeled OP-1 and unlabeled OP-1 or peptide for binding to membrane-bound receptor. A well characterized ROS cell based in vitro bio-assay was used to examine the effects of OP-1 peptides on basal as well as OP-1 induced cellular alkaline phosphatase activity.
i. ROS Cell Based Alkaline Phosphatase Assay: OP-1 synthetic peptides that bind OP-1 receptors are further analyzed by in vitro bioassay. This allows defining the role of OP-1 peptides at the receptor-binding site. Some of the OP-1 peptides that effectively interact with receptors could inhibit OP-1 induced target cell responsiveness, thereby acting as functional antagonists. Alternatively, they may mimic OP-1 functions inducing alkaline phosphatase activity in ROS cells. Creative BioMolecules has developed and fully validated ROS cell in vitro assay for OP-1. An assay procedure as described earlier is essentially followed to determine the biological activities of OP-1 peptides. In a typical experiment, rat Osteosarcoma (17/2.8) cells are plated in 96 well plates (3.0×10^4 cells/well) and incubated overnight at 37° C. in 5-6% CO2 incubator. Next day, the plates are examined to make sure that cells are healthy & confluent. Cells are treated with increasing concentrations of OP-1 standard (1-10,000 ng/ml) or OP-1 synthetic peptides (0.02-200 μM) alone or with OP-1 standard prepared in medium containing 1% FBS and incubated for 2 days at 37° C. in 5-6% CO2 incubator. The cellular content of alkaline phosphatase activity is determined by the method of Reddi and Huggins. Enzyme estimations are routinely carried out in 96 well plates. Following removal of culture medium, cells are washed with pre-warmed PBS (150 μl) and further incubated in 100 ul of pre-warmed 1% Triton X-100 for 30 minutes at 37 C. Plates are centrifuged for 10 minutes at full speed, and recovered samples (each 15 μl) are assayed for enzyme activity by adding 90 ul p-nitrophenyl phosphate (Sigma) as a substrate in 0.05 M glycine-NaOH buffer, pH 9.3 and incubating for 20 minutes at 37° C. The reaction is stopped by adding 75 μl of 0.2 N NaOH/well and absorbance at 405/490 nm is measured on a Dynatech MR 700 plate reader. Results are expressed as concentration of peptide inhibitor (with antagonist activity) required to give 50% inhibition of maximum response to OP-1 standard. On the other hand, the activities of peptides that stimulate cell responsiveness (with agonist activity) are expressed relative to OP-1 standard. FIG. 23 illustrates the dose-related effects of OP-1 preparations on stimulation of alkaline phosphatase activity as determined in ROS cell based in vitro assay.

[1] = test system: OP-1 receptor-enriched plasma membrane fraction of ROS cells; assay: Radioligand receptor assay: displacement of 125I-labeled OP-1 from ROS cell plasma membranes; type: binding, rat
Description: In a second series of experiments, the ability of unlabeled soluble OP-1 and unlabeled peptides F1-2, F2-2, F2-3, H-n2 and H-c2 to displace ^125I labeled soluble OP-1 from ROS cell membranes was measured. The activities of peptides F2-2 and F2-3 relative to soluble OP-1 are shown in FIG. 10A, and the activities of peptides Fi-2, H-n2 and H-c2 relative to soluble OP-1 are shown in FIG. 10B. OP-1 receptor-enriched plasma membranes of ROS cells were incubated for 20 hrs at 4° C. with ^125I-labeled soluble OP-1 and unlabeled peptide. Receptor bound material was separated from unbound material by centrifugation at 39,500×g. The resulting pellet was harvested and washed with 50 mM HEPES buffer, pH 7.4 containing 5 mM MgCl2 and 1 mM CaCl2 Radioactivity remaining in the pellet was determined by means of a gamma counter.
as §1
i. Radio-receptor Assay: The receptor-binding activities of various OP-1 synthetic peptides can be determined by an equilibrium displacement binding isotherm assay using ^125I-labeled OP-1 as ligand and OP-1 receptor-enriched plasma membrane fraction of ROS cells. Highly purified OP-1 can be radioiodinated to a specific activity of 70-78 μCi/ug by a modified procedure of lactoperoxidase method. The percent bindability of radioiodinated OP-1 to excess receptor is 30-37%. Plasma membranes enriched with OP-1 receptors from ROS cells can be isolated as is known in the art. […] In a typical assay, fixed amounts of ^125I-labeled sol. OP-1 (˜80,000 cpm) are incubated with fixed amount of receptor-enriched plasma membrane fraction in the presence (5 μg, for non-specific binding) or absence of excess unlabeled OP-1 (for total binding). Displacement curves are generated with increasing concentrations of OP-1 peptide (0.032-50 μM) or OP-1 standard preparation (5-2000 ng). The assay incubations are carried out in a reaction volume of 300 μl with shaking for 22 hrs. at 4° C. Separation of bound and free ^125I-labeled OP-1 is by centrifugation (39,500×g, 30 minutes). The supernatants are aspirated and pellets are washed before counting in a gamma counter (Packard Instr., Downers Grove, Ill.). The concentration of OP-1 peptide required to give 50% inhibition of total specific binding of ^125I-labeled OP-1 (ED50) is calculated from competitive data.

| Molecule | behaviour in the alkaline phosphatase assay (agonist/antagonist) (ROS cells; Example 2, alone or with 40 ng/ml soluble OP-1) | effect on basal cell responsiveness (alkaline phosphatase activity) (ROS cells; Example 3, peptide alone, no OP-1) | effect on OP-1 induced cell responsiveness (agonist/antagonist behaviour) (ROS cells; Example 3, peptide together with OP-1) | peptide concentrations at which OP-1 induced responsiveness is potentiated (ROS cells; Example 3, with OP-1) [µM] | overall judgement of activity (lead peptides) (ROS cells; Example 3 summary, antagonistic (H-C2) and modulating (F2-3) activity) | % increase in OP-1 response relative to the absence of peptide (ROS cells; peptide 0.01 (unit printed ELM), FIG. 19) [%] | % increase in OP-1 response relative to the absence of peptide (ROS cells; peptide 0.1 (unit printed ELM), FIG. 19) [%] | % increase in OP-1 response relative to the absence of peptide (ROS cells; peptide 1 ELM (so in the source), FIG. 19) [%] | increase of alkaline phosphatase activity relative to soluble OP-1 alone (ROS cells; peptide about 0.01 μM with 40 ng/ml soluble OP-1, FIG. 9B) | effect on basal alkaline phosphatase level (ROS cells; peptide alone, about 0.01 μM, Example 2, FIG. 9B) | ability to displace 125I-labeled soluble OP-1 from ROS cell membranes ([1]; Example 2, FIGS. 10A and 10B) | effect on binding of 125I-labeled OP-1 to the receptor ([1]; Example 3) | level of OP-1 response in the absence of peptide (ROS cells; FIG. 19, sub-maximal OP-1 (1.33 nM)) | affinity (Ka) of OP-1 binding sites ([1]; single class of binding sites in ROS cell plasma membrane preparations) [M⁻¹] |
| --- | --- | --- | --- | --- | --- | --- | --- | --- | --- | --- | --- | --- | --- | --- |
| F2-3: SEQ ID No. 19; 16 residues, finger 2 tip 11-residue loop with 5-residue C-terminal extension (CYFDDSSNVICKKYRS; listed as Homo sapiens) | weak OP-1 agonists | no significant effect | agonistic manner; also recorded: potentiating the cell responsiveness to OP-1 | 0.01 to 1 | highly active | 53 | 54 | 48 | about 20% | increase the basal alkaline phosphatase level | able to completely displace | effectively competed |  |  |
| B1 |  |  |  |  |  |  |  |  |  |  |  |  | approximately 60 % of maximum | 4.38e+09 |

— patent US20030185792A1, “Morphogen analogs of bone morphogenic proteins” (Curis, Inc., priority 1996, published 2003)
